Entries after “also recorded” stand apart in the source; their conditions may differ.
Columns and labels:
[1] = system: latent HIV in J-lat cells; assay: Activation of GFP expression (latent HIV reactivation) in J-lat cells; assay type: cell-based; settings: for Ability to stimulate GFP expression in J-lat cells compared with ZL0568 (SAR): 10 μM; for GFP expression in J-lat cells: flow cytometry, 10 M (so in the source)
Procedure: FIG. 2A. Assessment of compound ZL0568, an exemplary embodiment of the invention, for the ability to stimulate GFP expression in J-lat cells. GFP fluorescence intensity was measured by microplate reader.
FIG. 2C. Dose-dependent activation of GFP expression in J-lat cells by ZL0568 measured by flow cytometry.
Dose-dependent activation of GFP expression by ZL0568 in J-lat cells was confirmed by flow cytometric analysis with an EC50 value of 8 μM (in DMSO) (FIG. 2C-D). […] See e.g., FIG. 8A-E.
Specificity and structure-activity relationship (SAR) for ZL0568 was determined by synthesizing and testing four analogues (ZL0696, ZL0697, ZL0699 and ZL06100; 10 μM).

latent HIV in NNTC PBMC [2] = assay: Activation of latent HIV gene expression (3'LTR PCR) in PBMC of ART-suppressed, aviremic HIV-infected subjects (NNTC); assay type: cell-based; settings: for HIV gene expression, PCR quantification of HIV 3'LTR vs NC: fresh and frozen PBMC of one NNTC subject, 48 hours, ZL0568 10 M (so in the source)
Procedure: FIG. 6A. Relative HIV gene expression in one representative PBMC following different treatments. Fresh and cryopreserved PBMC of the same donor were compared.
FIG. 6C. Relative HIV gene expression in multiple BMCs (n=8) after treatments were summarized.
The ability of compound ZL0568 to activate latent HIV in PBMC of ART-suppressed, aviremic HIV-infected subjects was tested. PBMC samples were obtained from the well-established HIV infection cohort from the National NeuroAIDS Tissue Consortium (NNTC) with (66, 67). First, feasibility of using NNTC's cryopreserved PBMC in the experiments was explored by comparing the results from fresh and frozen PBMC of the same subject. […] Thus, fresh and cryopreserved PBMC from a representative NNTC subject (ID: 8400337177) were stimulated with compound ZL0568 (10 M) as compared to stimulation with mock (NC) or positive controls (JQ1, Prostratin and PMA; concentrations of positive controls were used as previously reported (21, 25)).
(§1) HIV release in the supernatants of PBMC at 72 hours after treatments using the 1G5 luciferase reporter assay (68, 69) was measured and very similar results were found (FIG. 6B). We noted that although the levels of HIV activation in frozen PBMC were generally lower than those in fresh PBMC, the differences among different treatments were consistently detected (FIG. 6A-B), supporting the feasibility of using NNTC's cryopreserved PBMCs in our system.
(§2) Compound ZL0568 was further tested in multiple NNTC's donor PBMCs (n=8) for HIV gene activation (FIG. 6C) as well as viral production (FIG. 6D).

[3] = system: latent HIV in human monocytic U1 cells; assay: Activation of latent HIV in U1 cells, intracellular HIV p24 staining by flow cytometry; assay type: cell-based; settings: various concentrations, 48 hours
Procedure: FIG. 4. Activation of latent HIV by compound ZL0568 in U1 cells. U1 cells were stimulated with various concentrations of compound ZL0568 as indicated or mock-stimulated (NC) for 48 hours. Reactivation of latent HIV were examined based on intracellular HIV p24 staining (p24%) by flow cytometry.
Whether or not compound ZL0568, an exemplary embodiment of the invention, can activate latent HIV in human monocytic U1 cells was evaluated. In particular, U1 cells were stimulated with various concentrations of ZL0568 or mock DMSO (NC). Reactivation of latent HIV was measured based on intracellular HIV p24 staining by flow cytometry.

HIV in RV21 PBMC = assay: Activation of HIV gene expression in PBMC of ART-naive, viremic HIV-infected individuals (RV21); assay type: cell-based
Procedure: FIG. 5A Activation of HIV gene expression (3′ LTR) in a representative RV21 PBMC on Day 1, 2 and 5 after stimulation. The data are shown as fold change to NC.
A significant limitation for some existing LRAs (e.g. HDACi & BETi) is related to their limited efficacy to activate latent HIV in primary cells (16, 17, 19-21). Whether or not our compound ZL0568 can stimulate HIV gene expression in human PBMC from ART-naïve, viremic HIV-infected individuals was assessed using cells from the RV21, an ART-naïve, HIV infection cohort at the Military HIV Research Program (MHRP). See e.g., Liu F, et al. Sequential Dysfunction and Progressive Depletion of Candida albicans-Specific CD4 T Cell Response in HIV-1 Infection. PLoS Pathog 12(6):e1005663 (2016). A widely-used method to detect HIV transcription in cells from infected individuals involves measurement of RNAs containing HIV gag sequences. […] See e.g., Bullen C K, Laird G M, Durand C M, Siliciano J D, & Siliciano R F, New ex vivo approaches distinguish effective and ineffective single agents for reversing HIV-1 latency in vivo. Nat Med 20(4):425-429 (2014).
Therefore, in addition to Gag, a new PCR assay, established by the Siliciano group, specific for intracellular HIV mRNA using a primer/probe set that detects the 3′-sequence common to all correctly terminated HIV RNAs was employed. […]

latent HIV in NNTC PBMC [4] = assay: HIV release in supernatants of treated PBMC, 1G5 luciferase reporter assay; assay type: cell-based; settings: multiple NNTC donor PBMCs (n=8), p<0.01
Procedure: FIG. 6B. Relative viral release in one representative PBMC following different treatments. Fresh and cryopreserved PBMC of the same donor were compared.
FIG. 6D. HIV release in supernatants of treated PBMC was measured by 1G5 reporter luciferase assay and compared between ZL0568 and NC.
as §1, §2

[5] = Cellular toxicity on J-lat cells (% viable cells); assay type: cell-based; settings: stated for J-lat and human PBMC together; cell type not specified; read-out: cytotoxicity CC50
Procedure: (§3) FIG. 8A. Cellular toxicity of ZL0568 on J-lat cells. Toxicity was measured as % viable cells at Day 1, 2 and 3 after stimulation at various concentrations.
(§4) Cellular toxicity profile of ZL0568 and its effects on human T cells was evaluated. […] This possibility was precluded since apoptosis was recently shown to be associated with HIV reactivation (68).

J-lat cells = assay: Cellular toxicity on J-lat cells (% viable cells); assay type: cell-based; settings: J-lat cells; 40 μM
Procedure: as §3, §4

human PBMC = assay: Cellular toxicity on human PBMC (% viable cells); assay type: cell-based; settings: 40 μM
Procedure: FIG. 8B. Cellular toxicity of ZL0568 on human PBMC. Toxicity was measured as % viable cells at Day 1, 2 and 3 after stimulation at various concentrations.
as §4

T cells [6] = assay: Caspase-3 and Caspase-1 expression in T cells; assay type: cell-based, human; settings: 24 hours, vs NC
Procedure: FIG. 8C. Caspase-3 and Caspase-1 expression in T cells with ZL0568 stimulation as compared to NC (24 hours).
as §4

T cells [7] = assay: T-cell activation marker expression (CD25, CD38, CD69, HLA-DR) by flow cytometry; assay type: cell-based, human; settings: 10 μM
Procedure: FIG. 8D. T-cell activation by ZL0568. Activation marker expression (CD25, CD38, CD69, HLA-DR) on T-cells was measured flow cytometry and compared between ZL0568 (10 uM) and NC.
as §4

T cells [8] = assay: Expression of cytokines in T cells by intracellular cytokine staining; assay type: cell-based, human; settings: 10 uM, 24 hours
Procedure: FIG. 8E. Expression of cytokines (% IFN-r, IL-2, MIP-1b or IL-17) in T cells between ZL0568 treatment (10 uM) and NC (24 hours), measured by intracellular cytokine staining.
as §4

[9] = system: EPAC (EPAC1) in J-lat cells; assay: 007-AM-stimulated GFP expression in J-lat cells after CRISPR/Cas9 knock out of EPAC; assay type: cell-based
Text: FIG. 3F. Functional involvement of EPAC in 007-AM stimulated HIV reactivation in J-lat cells.

SMILES	Ability to stimulate GFP expression in J-lat cells compared with ZL0568 (SAR) [1]	HIV gene expression, PCR quantification of HIV 3'LTR vs NC (latent HIV in NNTC PBMC [2])	GFP expression / HIV reactivation in J-lat cells (in words) [1]	GFP expression in J-lat cells [1] [%]	also measured
Cn1cc(C(=O)/C(C#N)=N/Nc2cc(Cl)cc(Cl)c2)c2ccccc21 [ZL0699, (E)-N-(3,5-Dichlorophenyl)-2-(1-methyl-1H-indol-3-yl)-2-oxoacetohydrazonoyl Cyanide]	substantially abrogated the ability to stimulate GFP expression	–	–	–	–
Cn1cc(C(=O)/C(C#N)=N/Nc2ccccc2Cl)c2ccccc21 [ZL0696, (E)-N-(2-Chlorophenyl)-2-(1-methyl-1H-indol-3-yl)-2-oxoacetohydrazonoyl Cyanide]	substantially abrogated the ability to stimulate GFP expression	–	–	–	–
CC(=O)O[C@@]12C[C@@H](C)[C@@]3(O)[C@@H](C=C(CO)C[C@]4(O)C(=O)C(C)=C[C@@H]34)[C@@H]1C2(C)C [Prostratin]	–	markedly activated HIV gene expression	–	–	–
Cn1cc(C(=O)/C(C#N)=N/Nc2ccc(Cl)c(C(F)(F)F)c2)c2ccccc21 [ZL0568, (E)-N-(4-chloro-3-(trifluoromethyl)phenyl)-2-(1-methyl-1H-indol-3-yl)-2-oxoacetohydrazonoyl Cyanide]	–	significant HIV gene expression	significant GFP expression	21.7	EC50 ([1]; Human immunodeficiency virus 1, flow cytometric analysis, in DMSO, read-out: EC50, dose-dependent activation of GFP expression in J-lat cells): 8 µM; HIV reactivation in U1 cells based on p24 expression [3]: could also stimulate HIV reactivation in U1 cells in a dose-dependent manner; HIV gene expression (3'LTR and Gag together) vs NC (HIV in RV21 PBMC; ART-naive RV21 PBMCs, Day 2, p<0.005): could significantly activate HIV gene expression; HIV 3'-LTR gene expression, time course (HIV in RV21 PBMC; representative RV21 PBMC, 10 M (so in the source), Day 1, 2 and 5): induced HIV 3′-TLR expression on Day 2 after stimulation, which became less significant on Day 5; HIV gene activation vs NC (latent HIV in NNTC PBMC [2]; multiple NNTC donor PBMCs (n=8), p<0.01): enhanced HIV activation; Viral production vs NC (latent HIV in NNTC PBMC [4]): enhanced HIV activation; CC50 [5]: 75 µM; Cellular toxicity, % viable cells (J-lat cells): limited cellular toxicity; Cellular toxicity, % viable cells (human PBMC): limited cellular toxicity; Induction of cell death signals (caspase-3/caspase-1) (T cells [6]): no preferential induction of cell death signals; CD69 and HLA-DR expression (T cells [7]): no significant increase; T-cell activation, expression of CD25 and CD38 (T cells [7]; p<0.001): modest level of T-cell activation; Expression of inflammatory cytokines in T cells (IFN-γ, IL-2, MIP-1b, IL-17) (T cells [8]): did not induce expression of inflammatory cytokines
CCCCCCCCCCCCCC(=O)O[C@@H]1[C@@H](C)[C@@]2(O)[C@@H](C=C(CO)C[C@]3(O)C(=O)C(C)=C[C@@H]23)[C@@H]2C(C)(C)[C@]12OC(C)=O [PMA]	–	markedly activated HIV gene expression	–	–	–
CC(C)(C)c1cc(C(=O)/C(C#N)=N/Nc2cccc(Cl)c2)no1 [ESI-09, reference compound]	–	–	no HIV activation effect; also recorded: no GFP-activating effect	–	–
Cc1sc2c(c1C)C(c1ccc(Cl)cc1)=N[C@@H](CC(=O)OC(C)(C)C)c1nnc(C)n1-2 [JQ1, reference compound]	–	failed to do so	–	8.97	–
Cn1cc(C(=O)/C(C#N)=N/Nc2cccc(Cl)c2)c2ccccc21 [ZL0697, (E)-N-(3-Chlorophenyl)-2-(1-methyl-1H-indol-3-yl)-2-oxoacetohydrazonoyl Cyanide]	substantially abrogated the ability to stimulate GFP expression	–	–	–	–
Cn1cc(C(=O)/C(C#N)=N/Nc2ccc3c(c2)CCC(=O)N3)c2ccccc21 [ZL06100, (E)-2-(1-Methyl-1H-indol-3-yl)-2-oxo-N-(2-oxo-1,2,3,4-tetrahydroquinolin-6-yl)acetohydrazonoyl Cyanide]	still maintained some potency	–	–	–	–
CO[C@@H]1[C@@H]2OP(=O)(OCOC(C)=O)OC[C@H]2O[C@H]1n1c(Sc2ccc(Cl)cc2)nc2c(N)ncnc21 (stereo partly shown) [007-AM, reference compound]	–	–	significant HIV reactivation	12.8	007-AM-stimulated GFP expression after ablation of EPAC [9]: marked decrease
